From the NIST ThermoML archive (doi:10.1021/acs.jced.8b00201)

Assay: xn = mol fraction of the nth substance listed
Settings: 100 kPa, Liquid; for viscosity: Concentric cylinders viscometry; for mass density: Vibrating tube method

O=C1CCCCC1 [cyclohexanone] + CCCCCCCCCCO
Settings	mass density [kg/m3]	viscosity [mPa·s]
293.15 K, x1 = 0.0807	834.5	12.23
293.15 K, x1 = 0.1613	840	10.39
293.15 K, x1 = 0.2387	845.6	8.73
293.15 K, x1 = 0.3519	855.1	6.64
293.15 K, x1 = 0.4407	863.4	5.35
293.15 K, x1 = 0.5568	875.9	3.94
293.15 K, x1 = 0.6517	887.7	3.08
293.15 K, x1 = 0.7412	900.4	2.54
293.15 K, x1 = 0.8518	918.6	2.22
293.15 K, x1 = 0.9441	936.5	2.17
293.15 K, x1 = 1	948.8	2.3
298.15 K, x1 = 0.0807	830.9	10
298.15 K, x1 = 0.1613	836.4	8.43
298.15 K, x1 = 0.2387	841.8	7.18
298.15 K, x1 = 0.3519	851	5.67
298.15 K, x1 = 0.4407	859.2	4.69
298.15 K, x1 = 0.5568	871.4	3.56
298.15 K, x1 = 0.6517	883	2.87
298.15 K, x1 = 0.7412	895.4	2.43
298.15 K, x1 = 0.8518	913.3	2.13
298.15 K, x1 = 0.9441	930.9	2.08
298.15 K, x1 = 1	943.1	2.09
303.15 K, x1 = 0.0807	827.4	8.39
303.15 K, x1 = 0.1613	832.6	7.21
303.15 K, x1 = 0.2387	838.1	6.19
303.15 K, x1 = 0.3519	847.2	4.87
303.15 K, x1 = 0.4407	855.2	4.04
303.15 K, x1 = 0.5568	867.3	3.16
303.15 K, x1 = 0.6517	878.7	2.6
303.15 K, x1 = 0.7412	891	2.23
303.15 K, x1 = 0.8518	908.7	1.97
303.15 K, x1 = 0.9441	926.1	1.89
303.15 K, x1 = 1	938.2	1.91
308.15 K, x1 = 0.0807	823.9	7.09
308.15 K, x1 = 0.1613	829.1	6.14
308.15 K, x1 = 0.2387	834.5	5.38
308.15 K, x1 = 0.3519	843.4	4.37
308.15 K, x1 = 0.4407	851.4	3.69
308.15 K, x1 = 0.5568	863.3	2.94
308.15 K, x1 = 0.6517	874.6	2.45
308.15 K, x1 = 0.7412	886.7	2.11
308.15 K, x1 = 0.8518	904.2	1.84
308.15 K, x1 = 0.9441	921.5	1.73
308.15 K, x1 = 1	933.5	1.75
313.15 K, x1 = 0.0807	820.4	5.99
313.15 K, x1 = 0.1613	825.5	5.26
313.15 K, x1 = 0.2387	830.8	4.6
313.15 K, x1 = 0.3519	839.6	3.75
313.15 K, x1 = 0.4407	847.4	3.17
313.15 K, x1 = 0.5568	859.2	2.6
313.15 K, x1 = 0.6517	870.3	2.21
313.15 K, x1 = 0.7412	882.4	1.92
313.15 K, x1 = 0.8518	899.7	1.7
313.15 K, x1 = 0.9441	916.9	1.57
313.15 K, x1 = 1	928.8	1.6
318.15 K, x1 = 0.0807	816.9	5.08
318.15 K, x1 = 0.1613	821.9	4.45
318.15 K, x1 = 0.2387	827.2	3.86
318.15 K, x1 = 0.3519	835.9	3.15
318.15 K, x1 = 0.4407	843.6	2.69
318.15 K, x1 = 0.5568	855.3	2.19
318.15 K, x1 = 0.6517	866.3	1.88
318.15 K, x1 = 0.7412	878.3	1.67
318.15 K, x1 = 0.8518	895.5	1.51
318.15 K, x1 = 0.9441	912.6	1.44
318.15 K, x1 = 1	924.4	1.46
323.15 K, x1 = 0.0807	813.3	4.41
323.15 K, x1 = 0.1613	818.3	3.88
323.15 K, x1 = 0.2387	823.5	3.43
323.15 K, x1 = 0.3519	832.1	2.84
323.15 K, x1 = 0.4407	839.8	2.46
323.15 K, x1 = 0.5568	851.4	2.05
323.15 K, x1 = 0.6517	862.5	1.78
323.15 K, x1 = 0.7412	874.4	1.57
323.15 K, x1 = 0.8518	891.7	1.42
323.15 K, x1 = 0.9441	908.8	1.35
323.15 K, x1 = 1	920.7	1.34

O=C1CCCCC1 [cyclohexanone] + CCCCCCCCO
Settings	mass density [kg/m3]	viscosity [mPa·s]
293.15 K, x1 = 0.0803	831.3	7.76
293.15 K, x1 = 0.1519	837.4	6.62
293.15 K, x1 = 0.2388	845.2	5.58
293.15 K, x1 = 0.3427	855.4	4.48
293.15 K, x1 = 0.4378	865.6	3.72
293.15 K, x1 = 0.5606	880	2.97
293.15 K, x1 = 0.6498	891.6	2.57
293.15 K, x1 = 0.7407	904.5	2.33
293.15 K, x1 = 0.8422	920.4	2.28
293.15 K, x1 = 0.9377	937.4	2.25
293.15 K, x1 = 1	948.8	2.3
298.15 K, x1 = 0.0803	827.7	6.52
298.15 K, x1 = 0.1519	833.6	5.65
298.15 K, x1 = 0.2388	841.3	4.8
298.15 K, x1 = 0.3427	851.2	3.91
298.15 K, x1 = 0.4378	861.2	3.29
298.15 K, x1 = 0.5606	875.4	2.66
298.15 K, x1 = 0.6498	886.8	2.32
298.15 K, x1 = 0.7407	899.5	2.13
298.15 K, x1 = 0.8422	915.1	2.07
298.15 K, x1 = 0.9377	931.4	2.04
298.15 K, x1 = 1	943.1	2.09
303.15 K, x1 = 0.0803	824.1	5.54
303.15 K, x1 = 0.1519	829.8	4.87
303.15 K, x1 = 0.2388	837.4	4.17
303.15 K, x1 = 0.3427	847.2	3.44
303.15 K, x1 = 0.4378	857	2.94
303.15 K, x1 = 0.5606	871.1	2.42
303.15 K, x1 = 0.6498	882.3	2.16
303.15 K, x1 = 0.7407	894.9	1.97
303.15 K, x1 = 0.8422	910.4	1.9
303.15 K, x1 = 0.9377	926.6	1.87
303.15 K, x1 = 1	938.2	1.91
308.15 K, x1 = 0.0803	820.5	4.73
308.15 K, x1 = 0.1519	826.1	4.16
308.15 K, x1 = 0.2388	833.6	3.61
308.15 K, x1 = 0.3427	843.2	3.03
308.15 K, x1 = 0.4378	852.9	2.6
308.15 K, x1 = 0.5606	866.8	2.15
308.15 K, x1 = 0.6498	877.9	1.94
308.15 K, x1 = 0.7407	890.4	1.79
308.15 K, x1 = 0.8422	905.9	1.74
308.15 K, x1 = 0.9377	922	1.72
308.15 K, x1 = 1	933.5	1.75
313.15 K, x1 = 0.0803	816.8	4.07
313.15 K, x1 = 0.1519	822.4	3.6
313.15 K, x1 = 0.2388	829.7	3.12
313.15 K, x1 = 0.3427	839.2	2.63
313.15 K, x1 = 0.4378	848.8	2.3
313.15 K, x1 = 0.5606	862.5	1.95
313.15 K, x1 = 0.6498	873.6	1.75
313.15 K, x1 = 0.7407	886	1.64
313.15 K, x1 = 0.8422	901.3	1.6
313.15 K, x1 = 0.9377	917.3	1.57
313.15 K, x1 = 1	928.8	1.6
318.15 K, x1 = 0.0803	813.1	3.51
318.15 K, x1 = 0.1519	818.6	3.11
318.15 K, x1 = 0.2388	825.8	2.73
318.15 K, x1 = 0.3427	835.2	2.32
318.15 K, x1 = 0.4378	844.7	2.04
318.15 K, x1 = 0.5606	858.4	1.75
318.15 K, x1 = 0.6498	869.3	1.6
318.15 K, x1 = 0.7407	881.6	1.5
318.15 K, x1 = 0.8422	896.9	1.46
318.15 K, x1 = 0.9377	912.9	1.44
318.15 K, x1 = 1	924.4	1.46
323.15 K, x1 = 0.0803	809.5	3.03
323.15 K, x1 = 0.1519	814.9	2.73
323.15 K, x1 = 0.2388	822.1	2.42
323.15 K, x1 = 0.3427	831.5	2.09
323.15 K, x1 = 0.4378	841	1.85
323.15 K, x1 = 0.5606	854.6	1.6
323.15 K, x1 = 0.6498	865.5	1.46
323.15 K, x1 = 0.7407	877.9	1.37
323.15 K, x1 = 0.8422	893.2	1.34
323.15 K, x1 = 0.9377	909.2	1.32
323.15 K, x1 = 1	920.7	1.34
